Experiment [1] deals with guinea pig bronchioles constricted by carbachol. Nature of the experiment: Bronchodilator Test Method II, in vitro perfused guinea pig lung. The protocol:
In this method bronchodilator activity in vitro was determined by testing the effect of graded doses of the test compounds on guinea pig bronchioles constricted by carbachol, using the technique reported by Sollman and von Oettingen, Proc. Soc, Exp. Biol. Med., 25,692 (1928) as modified by Tainter, Pedden, and James, J. Pharm. Exp. Ther., 51, 371 (1934) and by Luduena, von Euler, Tullar, and Lands, Arch. intern. Pharmacol., III, 392 (1957).

In experiment [2] the test system is carbachol- or histamine-induced bronchoconstriction. Nature of the experiment: Bronchodilator Test Method I, anesthetized dog, intravenous activity. Format: in vivo. The following applies: Canis lupus familiaris, read-out: Bronchodilatation; for inhibition in vivo at 0.0012 mg/kg: 1.2 mcg/kg i.v.; for inhibition in vivo at 0.006 mg/kg: 6.0 mcg/kg i.v.; for inhibition in vivo at 0.025 mg/kg: 25 mcg/kg i.v. The protocol:
Bronchodilator activity was tested in anesthetized dogs (Test Method I) and in vitro on the perfused guinea pig lung (Test Method II), using the following pharmacological test procedures
(§1) Male and female dogs weighing 9-18 kg. each were anesthetized with pentobarbital sodium (30 mg./kg. i.v.). Each animal, with thorax opened at the midsternum, was maintained under artificial ventilation using a constant volume pump (250 ml./stroke; 10 to 12 strokes per minute) attached to the tracheal cannula. The flow of air was controlled by a glass or plastic valve which closed and opened respectively on inflow and outflow of the air to and from the tracheal cannula. Bronchoconstriction and/or bronchodilatation were measured from changes in the basal airway pressure reflected by a transducer attached to the sidearm of the cannula relayed to a polygraph.
Control bronchoconstrictions were induced by intravenous injections of carbachol (choline chloride carbamate) in doses ranging from 4 to 6 micrograms per kilogram or histamine diphosphate in doses ranging from 35 to 45 micrograms per kilogram.
Solutions of the test compounds were prepared in distilled water or in saline (for infusion). […] These solutions were then tested for bronchodilator activity in three ways, viz. (1) by mixing a graded dose of test compound with the constant does of carbachol or histamine in a syringe and injecting the mixture into the femoral vein of the dog, (2) by producing the bronchoconstriction first and injecting the test compound at the time of maximum constriction, and (3) by injecting the test compound first followed by carbachol or histamine in 1-10 minutes. Injections were repeated at 20-30 minutes. Bronchodilator values were obtained by measuring the areas under the response polygraph tracings (the first 5 munite period) of carbachol or histamine controls and of the experimentals using a planimeter. Decrease in the area thus measured was expressed as a percent bronchodilatation in reference to the area of control carbachol or histamine constriction. The mean bronchodilatations (the reductions in constrictions) were plotted against the doses administered and the mean effective dose (ED50) was estimated in micrograms/kilogram from the does-response curves. Blood pressure recording was taken from the femoral artery using an arterial transducer relayed to a polygraph.

The test system is the same in experiment [3]. Nature of the experiment: Bronchodilator Test Method I, anesthetized dog, intraduodenal activity. The experiment is classed as in vivo. To be noted: Canis lupus familiaris, 38 mcg/kg (salt) intraduodenal, read-out: Bronchodilation. The protocol:
as §1
Control bronchoconstrictions were induced by intravenous injections of carbachol (choline chloride carbamate) in doses ranging from 4 to 6 micrograms per kilogram or histamine diphosphate in doses ranging from 35 to 45 micrograms per kilogram. In the majority of test animals, the above doses of constrictor agents produced a 100-200 percent increase in the normal airway pressure or amplitude.
Injections were repeated at 20-30 minutes.
In intraduodenal studies, in the dog prepared for bronchodilation measurements, the duodenal segment of the small intestine was made easily accessible through a small mid-line incision in the abdomen. The test solution was injected into the duodenum using a fine needle. Commencing 5 minutes after medication, the degree and duration of bronchodilation were tested by injecting a control dose of carbachol or histamine at intervals of 30-60 minutes until the recovery or near-recovery was apparent. In some dogs showing an early recovery, a reference drug was also tested in the same dog 1.5-2 hours after the first medicine.

Read-outs that look alike come from different tables or passages of the source.

`CC(=O)Oc1ccc(C(O)CNC(C)(C)C)cc1OC(=O)c1ccccc1C` (stereo not drawn) [Example 147, 3-(o-toluyloxy)-4-acetoxy-alpha-(tert-butylaminomethyl)benzyl alcohol methanesulfonate]: the ED50 in experiment [1] (Doryl conc. 1:10 million) was 1.9 µg (base). For the same compound, in experiment [1] (dose 5 mcg (base), Doryl conc. 1:10 million), the “Duration, Mean” value is 15.9 ± 3.3 min. In addition, the inhibition in vivo at 0.0012 mg/kg came out at 36% in experiment [2] (5 min, 5 min); 3% in experiment [2] (0.5 h, 30 min); 0% in experiment [2] (1 h, 60 min). The inhibition in vivo at 0.006 mg/kg in experiment [2] (5 min, 5 min) came out at 77%; in experiment [2] (0.5 h, 30 min), 9%; in experiment [2] (1 h, 60 min) it was 0%. Moreover, the inhibition in vivo at 0.025 mg/kg in experiment [2] (5 min, 5 min) is 100%; in experiment [2] (0.5 h, 30 min), 32%; in experiment [2] (1 h, 60 min) it was 12%; in experiment [2] (2 h, 120 min), 4%.
Turning to `CC(C)C(=O)Oc1ccc(C(O)CNC(C)(C)C)cc1OC(=O)C(C)C.Cl` (stereo not drawn) [Example 2, 3,4-bis(isobutyryloxy)-alpha-(tert-butylaminomethyl)benzyl alcohol hydrochloride], the ED50 in experiment [1] (carbachol (Doryl) 1:5 million) was 0.28 µg (base). The “Duration, Mean” value in experiment [1] (dose 0.5 mcg (base)) is reported as 9 ± 1.1 min.
Regarding `COc1ccc(C(=O)Oc2ccc(C(O)CNC(C)(C)C)cc2OC(=O)c2ccccc2)cc1` (stereo not drawn) [Example 143, 3-benzoyloxy-4-(p-anisoyloxy)-alpha-(tert-butylaminomethyl)benzyl alcohol], in experiment [1] (Doryl conc. 1:10 million), the ED50 is 1.53 µg (base). In experiment [1] (dose 2 mcg (base), Doryl conc. 1:10 million), the “Duration, Mean” value is reported as 29.2 ± 10.2 min.
With `CC(C)(C)NCC(O)c1ccc(OC(=O)C(C)(C)C)c(O)c1` (stereo not drawn) [Example 59, 3-hydroxy-4-(pivalyloxy)-alpha-(tert-butylaminomethyl)benzyl alcohol methanesulfonate], the ED50 in experiment [1] (carbachol (Doryl) 1:5 million) is 1.2 µg (base). For the same compound, the “Duration, Mean” value in experiment [1] (dose 3.2 mcg (base)) turned out to be 25 ± 5.6 min.
`CC(=O)Oc1ccc(C(O)CNC(C)(C)C)cc1OC(=O)c1ccc(C)cc1` (stereo not drawn) [Example 146, 3-(p-toluyloxy)-4-acetoxy-alpha-(tert-butylaminomethyl)benzyl alcohol methanesulfonate]: the inhibition in vivo at 0.038 mg/kg in experiment [3] (5 min, 5 min) worked out at 60%; in experiment [3] (0.5 h, 30 min) it was 39%; in experiment [3] (1 h, 60 min), 39%; in experiment [3] (2 h, 120 min), 26%; in experiment [3] (3 h, 180 min) it was 33%; in experiment [3] (4 h, 240 min), 24%. The inhibition in vivo at 0.038 mg/kg in experiment [3] (5 h, 300 min) amounted to 13%. Besides, the inhibition in vivo at 0.0012 mg/kg was 31% in experiment [2] (5 min, 5 min); 38% in experiment [2] (0.5 h, 30 min); 44% in experiment [2] (1 h, 60 min); 20% in experiment [2] (3 h, 180 min); 20% in experiment [2] (4 h, 240 min). The inhibition in vivo at 0.006 mg/kg was 66% in experiment [2] (5 min, 5 min); 57% in experiment [2] (0.5 h, 30 min); 63% in experiment [2] (1 h, 60 min).
With `Cc1ccc(C(=O)Oc2ccc(C(O)CNC(C)C)cc2OC(=O)c2ccc(C)cc2)cc1` (stereo not drawn) [Example 89, 3,4-bis(p-toluyloxy)-alpha-(isopropylaminomethyl)benzyl alcohol], in experiment [1] (carbachol (Doryl) 1:5 million), the ED50 is 6.4 µg (base). The “Duration, Mean” value in experiment [1] (dose 15 mcg (base)) worked out at 125 ± 31 min.
Consider “3,4-bis(p-toluyloxy)-alpha-[1-(tert-butylaminomethyl)propyl]benzyl alcohol hydrochloride [Example 144]”, for which the “Duration, Mean” value in experiment [1] (dose 500 mcg (base)) is listed as 83 ± 26.8 min.
